Values belong to the compound of their own block, whether it stands above or below them.
Key:
GPR84 [1] = biological target: T1, GPR84 (Homo sapiens, UniProt Q9NQS5); assay: IP3 assay in 293 cells transfected with GPR84, with or without Gq(del)/Gi chimeric G protein; type: cell-based; set-up: expressed in transfected cells; host or cells: 293 cells comprising or not comprising Gq(del)/Gi; details: 293 cells comprising Gq(del)/Gi chimeric G protein, 10 μM, 3 hrs
Description: IP3 Assay of GPR84 activity was carried out. 293 cells were transfected with either vector alone or vector containing polynucleotide encoding GPR84. […] 24 hrs after transfection, cells were plated into 96 well plates, labeled overnight with ^3H-myoinositol.

GPR84 [2] = biological target: T1, GPR84; assay: Cyclase (cAMP Flashplate) assay in 293 cells transfected with GPR84; type: cell-based; details: 1 hr treatment
From the text: Thyroid-stimulating hormone (TSH, or thyrotropin) receptor (TSHR) causes the accumulation of intracellular cAMP on activation by its ligand TSH. An effective technique for measuring the decrease in production of cAMP corresponding to activation of a Gi-coupled receptor is to co-transfect TSHR with the Gi-coupled receptor and to carry out the assay in the presence of TSH to raise the level of basal cAMP, whereby TSHR acts as a “signal window enhancer.” Such an approach was used here. Cyclase assay of GPR84 activity was carried out. 293 cells were transfected with either vector alone or vector containing polynucleotide encoding GPR84.

GPR88 = GPR88 (Homo sapiens, UniProt Q9GZN0); assay: EC50 at GPR88 (selectivity, data not shown); type: cell-based; details: for EC50: not shown; for selectivity for GPR84 over GPR88: concluded from EC50 at GPR84 and GPR88
GPR88, sequence (Q9GZN0 whole entry): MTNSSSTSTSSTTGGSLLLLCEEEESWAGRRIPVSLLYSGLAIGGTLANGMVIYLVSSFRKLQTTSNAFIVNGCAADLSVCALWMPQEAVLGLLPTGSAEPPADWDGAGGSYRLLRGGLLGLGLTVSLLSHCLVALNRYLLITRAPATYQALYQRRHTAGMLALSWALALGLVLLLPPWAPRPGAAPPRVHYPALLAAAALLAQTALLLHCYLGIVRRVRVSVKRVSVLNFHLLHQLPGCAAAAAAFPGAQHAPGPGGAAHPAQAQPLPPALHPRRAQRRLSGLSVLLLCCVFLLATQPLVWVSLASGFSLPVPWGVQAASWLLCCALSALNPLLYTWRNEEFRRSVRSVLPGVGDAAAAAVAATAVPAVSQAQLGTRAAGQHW

[3] = tested on: IL-8 mRNA in human macrophage; assay: Steady-state IL-8 mRNA level in human macrophage (microarray); type: cell-based; details: 10 μM, 24 hours
Description: (§1) Human peripheral blood monocytes were isolated from buffy coat by dextran and ficoll purification. Monocytes were then purified using a monocyte isolation kit from Miltenyi Biotec. Monocytes were cultured for 7 days with 10 ng/ml GM-CSF to derive macrophage cells. […] MCP-1 and IL-8 steady-state mRNA levels were assessed by microarray analysis. Vehicle was dimethyl sulfoxide (DMSO); the final concentration of DMSO in the culture was 0.1% (v/v). Expression levels are the average and SD of two replicates.

[4] = tested on: MCP-1 mRNA in human macrophage; assay: Steady-state MCP-1 mRNA level in human macrophage (microarray); type: cell-based; details: 10 μM, 24 hours
Description: as §1

[5] = tested on: TNFα secretion by human macrophage; assay: TNFα secretion by human macrophage (ELISA); type: cell-based; details: 10 μM for 24 hrs, absence or presence of LPS
Description: Human peripheral blood monocytes were isolated from buffy coat by dextran and ficoll purification. Monocytes were then purified using a monocyte isolation kit from Miltenyi Biotec. Monocytes were cultured for 7 days with 10 ng/ml GM-CSF to derive macrophage cells. […] Vehicle was dimethyl sulfoxide (DMSO); the final concentration of DMSO in the culture was 0.1% (v/v). Cells were then stimulated with the indicated concentrations of LPS for 24 hours. Supernatants were collected and TNFα levels were assayed using a human specific TNFα ELISA kit from Biosource.

[6] = tested on: ABCA1 mRNA in human macrophage; assay: Steady-state ABCA1 mRNA level in human macrophage (TaqMan); type: cell-based; details: human monocyte-derived macrophage, 24 hours
Description: Macrophages were derived from monocytes as previously indicated. […] Vehicle was dimethyl sulfoxide (DMSO); the final concentration of DMSO in the culture was 0.1% (v/v). Total RNA was extracted from the cells and analyzed by TaqMan analysis as previously indicated to assess steady-state ABCA1 mRNA level. Data are the average and SD of three replicates. The qPCR reactions were prepared from the cDNA using the Bio-Rad qPCR kit, following the manufacturer's protocol. The qPCR reactions were performed using the ABI Prism 7900HT machine with the following temperatures and times: 50° C.—2 min, 95° C.—10 min followed by 40 cycles of 95° C.—15 sec and 60° C.—1 min.

[7] = tested on: TNFα secretion by mouse macrophage cell line RAW; assay: TNFα secretion by mouse macrophage cell line RAW (ELISA); type: cell-based; details: RAW cells, 1 μM for 24 hours, absence or presence of LPS
Description: RAW cells were cultured to subconfluency. […] Vehicle was dimethyl sulfoxide (DMSO); the final concentration of DMSO in the culture was 0.1% (v/v). Cells were then stimulated with the indicated concentrations of LPS for 24 hours. Supernatants were collected and TNFα levels were assayed using a mouse specific TNFα ELISA kit from Biosource.

GPR84 [8] = biological target: T1, GPR84; assay: Melanophore pigment aggregation assay, melanophores transiently transfected with human GPR84; type: cell-based; set-up: Full-Length Cloning of Endogenous Human GPR84; expressed in transfected cells; host or cells: melanophores (transient transfection); details: representative melanophore assay, one hour incubation
From the text: Melatonin activates an endogenous Gi-coupled receptor in the melanophores and causes them to aggregate their pigment. […] If the receptor were either a Gs or Gq coupled receptor, then the melatonin-aggregated melanophores would undergo pigment dispersion. In contrast, if the receptor was a Gi-coupled receptor, then the pigment-dispersed cells would be expected to undergo a dose-dependent pigment aggregation.

GPR84 [9] = biological target: T1, GPR84; assay: GTPγS binding assay with membranes from GPR84 transfected CHO-KI cells; type: biochemical; details: not shown
Description: GTPγS assay of GPR84 activity was carried out. Membranes prepared from GPR84 transfected CHO-KI cells were dissolved in binding buffer (20 mM HEPES, pH 7.4, 100 mM NaCl, 10 mM MgCl2) and homogenized briefly using a polytron. Membrane protein concentration was determined by Bradford assay and the membranes were diluted to 0.4 mg/ml in binding buffer. […] Binding was allowed to proceed for one hour before centrifuging the plates at room temperature to pellet the membrane and subsequent counting in a TopCount scintillation counter.

[10] = tested on: GPR84 mRNA in human monocytes; assay: GPR84 mRNA expression in primary human monocytes (QRT-PCR); type: cell-based; details: overnight
From the text: Peripheral blood leukocytes were separated from erythrocytes by sedimentation in a dextran containing saline solution. The leukocytes were washed, and mononuclear cells were isolated on a Ficoll density gradient. Peripheral blood mononuclear cells were then washed and negatively selected using a MACS® monocyte isolation kit II (Miltenyi Biotec, Auburn, Calif.) and LS MACS® cell separation columns according to manufacturer's instructions. Freshly isolated monocytes were then resuspended in culture medium alone or culture medium supplemented with TNFα (10 ng/ml) or IFNγ (10 or 100 ng/ml) and allowed to adhere to wells precoated with vitronectin. Cultures were harvested at the indicated times. GPR84 TaqMan analysis was performed essentially as described in Part A of Example 15, infra. Multiple replicates were obtained from different individual donors. Data are expressed as the mean of the ratio of the GPR84 signal to the HS9 (Human ribosomal protein S9, housekeeping gene) signal±SEM.

T1 sequence (Q9NQS5 whole entry): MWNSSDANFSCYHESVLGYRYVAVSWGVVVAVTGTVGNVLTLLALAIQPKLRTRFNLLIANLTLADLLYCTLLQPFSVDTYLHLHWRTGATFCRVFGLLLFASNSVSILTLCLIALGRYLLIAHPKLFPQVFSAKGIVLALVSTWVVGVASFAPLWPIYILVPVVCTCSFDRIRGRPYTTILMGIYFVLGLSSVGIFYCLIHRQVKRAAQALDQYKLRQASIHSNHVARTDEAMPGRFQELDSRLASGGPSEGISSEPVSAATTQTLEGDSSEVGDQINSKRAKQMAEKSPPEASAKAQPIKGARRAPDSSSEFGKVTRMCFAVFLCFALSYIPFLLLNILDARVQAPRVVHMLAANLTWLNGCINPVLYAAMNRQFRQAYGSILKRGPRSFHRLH

Compound: Pertussis toxin
- effect on stimulation of GTPγS binding to membrane by Compound 1 (GPR84 [9]): inhibit

Compound: IFNγ: proinflammatory cytokine interferon gamma
- GPR84 mRNA expression ([10]; primary monocytes, 10 or 100 ng/ml): dose-dependent increase

Compound: TNFα
- GPR84 mRNA expression ([10]; primary human monocytes, 10 ng/ml): significant increase

Second part, led by results:

- level of intracellular IP accumulation (GPR84 [1]): increase
- level of intracellular cAMP (GPR84 [2]): decrease
- EC50 (GPR88): > 100000 nM
Compound: CCCCCCCCCCCC1=C(O)C(=O)C=C(O)C1=O [Compound 1, 2,5-Dihydroxy-3-undecyl-[1,4]benzoquinone]
- steady-state level of IL-8 mRNA [3]: increase
- steady-state level of MCP-1 mRNA [4]: decrease
- TNFα secretion [5]: no effect
- steady-state level of ABCA1 mRNA [6]: increase
- TNFα secretion [7]: no effect

- EC50 (GPR84 [8]): 48.2 nM
- selectivity for GPR84 over GPR88 (GPR88): selective GPR84 agonist
- EC50 (GPR88): > 10000 nM
Compound: CCCCCC#CCC#CCC#CCC#CCCCC(=O)O [Compound 2, Icosa-5,8,11,14-tetraynoic acid]

- EC50 (GPR84 [8]): 30.8 nM
- selectivity for GPR84 over GPR88 (GPR88): selective GPR84 agonist
- EC50 (GPR88): > 10000 nM
Compound: CCCCC/C=C/C/C=C/C=C/C=C/[C@@H](O)[C@@H](O)CCCC(=O)O [Compound 3, 5S,6R-Dihydroxy-icosa-7,9,11,14-tetraenoic acid]

Reference: patent US8691498B2, “Methods of screening for a compound that reduces atherogenesis” (Arena Pharmaceuticals, Inc., priority 2005, dated 2014)
